Data: patent US7612064B2, “Sulfopyrroles” (Takeda Pharmaceutical Company Limited, priority 2003, dated 2009)

Legend:
MRC5 = test: MTS proliferation assay; format: cell-based; settings: MRC5, 72 h
How it was run: (§1)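 Cells exposed 72 h under culture conditions to compound at 10, 3, 1 and 0.3 μM final, added in medium with max 5% DMSO. MTS reagent then added for a further 3 h and absorbance read at 492 nm.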

Jily = test: MTS proliferation assay; format: cell-based; settings: 72 h
How it was run: as §1

[1] = Hoechst 33342 nuclear staining; format: cell-based; settings: for Hoechst 33342 nuclear staining score, H460: H460 cells; for Hoechst 33342 nuclear staining score, HeLa: HeLa cells; for Hoechst 33342 nuclear staining score, Jily: Jily cells; for Hoechst 33342 nuclear staining score, Jurkat: Jurkat cells; for Hoechst 33342 nuclear staining score, MRC5: MRC5 cells;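 on all read-outs here: apoptotic nuclei scored 0 none 1 weak under 50% of cells 2 strong over 50% of cells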
How it was run: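 After a further 30 min incubation, plates were inspected on a standard inverted fluorescence microscope. The fraction of apoptotic nuclei and other apoptosis-specific morphology were scored as 0 for no activity, 1 for weak activity in less than 50% of the cells, and 2 for strong activity in more than 50% of the cells.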

HeLa = test: MTS proliferation assay; format: cell-based, human; settings: 72 h
How it was run: as §1

Jurkat = test: MTS proliferation assay; format: cell-based, human; settings: 72 h
How it was run: as §1

Structure (SMILES) | IC50 (Jily) | Hoechst 33342 nuclear staining score, H460 ([1]; conc 0.1) | Hoechst 33342 nuclear staining score, H460 ([1]; conc 0.3) | Hoechst 33342 nuclear staining score, H460 ([1]; conc 1) | Hoechst 33342 nuclear staining score, H460 ([1]; conc 3) | Hoechst 33342 nuclear staining score, HeLa ([1]; conc 0.1) | Hoechst 33342 nuclear staining score, HeLa ([1]; conc 0.3) | Hoechst 33342 nuclear staining score, HeLa ([1]; conc 1) | Hoechst 33342 nuclear staining score, HeLa ([1]; conc 3) | Hoechst 33342 nuclear staining score, Jily ([1]; conc 0.1) | Hoechst 33342 nuclear staining score, Jily ([1]; conc 0.3) | Hoechst 33342 nuclear staining score, Jily ([1]; conc 1) | Hoechst 33342 nuclear staining score, Jily ([1]; conc 3) | Hoechst 33342 nuclear staining score, Jurkat ([1]; conc 0.1) | Hoechst 33342 nuclear staining score, Jurkat ([1]; conc 0.3) | Hoechst 33342 nuclear staining score, Jurkat ([1]; conc 1) | Hoechst 33342 nuclear staining score, Jurkat ([1]; conc 3) | Hoechst 33342 nuclear staining score, MRC5 ([1]; conc 0.1) | Hoechst 33342 nuclear staining score, MRC5 ([1]; conc 0.3) | Hoechst 33342 nuclear staining score, MRC5 ([1]; conc 1) | also measured
COc1ccc(S(=O)(=O)n2cc(-c3ccc(N)nc3)cc2-c2cc(OC)c(OC)c(OC)c2)cc1 [Example 100, 4-(2-Aminopyrid-5-yl)-1-p-methoxyphenylsulfonyl-2-(3,4,5-trimethoxyphenyl)-pyrrole] | < 0.2 µM | 0 | 2 (strong activity comprising more than 50% of the cells) | 2 (strong activity comprising more than 50% of the cells) | 2 (strong activity comprising more than 50% of the cells) | 0 | 2 (strong activity comprising more than 50% of the cells) | 2 (strong activity comprising more than 50% of the cells) | 2 (strong activity comprising more than 50% of the cells) | 0 | 2 (strong activity comprising more than 50% of the cells) | 2 (strong activity comprising more than 50% of the cells) | 2 (strong activity comprising more than 50% of the cells) | 0 | 2 (strong activity comprising more than 50% of the cells) | 2 (strong activity comprising more than 50% of the cells) | 2 (strong activity comprising more than 50% of the cells) | 0 | 1 (weak activity comprising less than 50% of the cells) | 2 (strong activity comprising more than 50% of the cells) | IC50 (MRC5; Homo sapiens): < 0.2 µM; Hoechst 33342 nuclear staining score, MRC5 ([1]; conc 3): 2 (strong activity comprising more than 50% of the cells); Hoechst 33342 nuclear staining score, PBLs ([1]; conc 0.1): 0; Hoechst 33342 nuclear staining score, PBLs ([1]; conc 0.3): 0; Hoechst 33342 nuclear staining score, PBLs ([1]; conc 1): 0; Hoechst 33342 nuclear staining score, PBLs ([1]; conc 3): 0; IC50 (HeLa; Homo sapiens): < 0.2 µM; IC50 (Jurkat; Homo sapiens): < 0.2 µM
COc1ccc(S(=O)(=O)n2cc(-c3ccc(N)nc3)cc2-c2cc(OC)ccc2OC)cc1 [Example 101] | < 0.2 µM | 0 | 2 (strong activity comprising more than 50% of the cells) | 2 (strong activity comprising more than 50% of the cells) | 2 (strong activity comprising more than 50% of the cells) | 0 | 2 (strong activity comprising more than 50% of the cells) | 2 (strong activity comprising more than 50% of the cells) | 2 (strong activity comprising more than 50% of the cells) | 0 | 2 (strong activity comprising more than 50% of the cells) | 2 (strong activity comprising more than 50% of the cells) | 2 (strong activity comprising more than 50% of the cells) | 0 | 2 (strong activity comprising more than 50% of the cells) | 2 (strong activity comprising more than 50% of the cells) | 2 (strong activity comprising more than 50% of the cells) | 0 | 2 (strong activity comprising more than 50% of the cells) | 2 (strong activity comprising more than 50% of the cells) | IC50 (MRC5): < 1 µM; Hoechst 33342 nuclear staining score, MRC5 ([1]; conc 3): 2 (strong activity comprising more than 50% of the cells); Hoechst 33342 nuclear staining score, PBLs ([1]; conc 0.1): 0; Hoechst 33342 nuclear staining score, PBLs ([1]; conc 0.3): 0; Hoechst 33342 nuclear staining score, PBLs ([1]; conc 1): 0; Hoechst 33342 nuclear staining score, PBLs ([1]; conc 3): 0; IC50 (HeLa): < 1 µM; IC50 (Jurkat): < 0.2 µM
COc1ccc(S(=O)(=O)n2cc(-c3ccc(N)nc3)cc2-c2ccc(OC)cc2OC)cc1 [Example 102] | < 1 µM | 0 | 0 | 1 (weak activity comprising less than 50% of the cells) | 2 (strong activity comprising more than 50% of the cells) | 0 | 0 | 1 (weak activity comprising less than 50% of the cells) | 2 (strong activity comprising more than 50% of the cells) | 0 | 0 | 2 (strong activity comprising more than 50% of the cells) | 2 (strong activity comprising more than 50% of the cells) | 0 | 0 | 2 (strong activity comprising more than 50% of the cells) | 2 (strong activity comprising more than 50% of the cells) | 0 | 0 | 0 | IC50 (MRC5): > 1 µM; Hoechst 33342 nuclear staining score, MRC5 ([1]; conc 3): 2 (strong activity comprising more than 50% of the cells); Hoechst 33342 nuclear staining score, PBLs ([1]; conc 0.1): 0; Hoechst 33342 nuclear staining score, PBLs ([1]; conc 0.3): 0; Hoechst 33342 nuclear staining score, PBLs ([1]; conc 1): 0; Hoechst 33342 nuclear staining score, PBLs ([1]; conc 3): 0; IC50 (HeLa): > 1 µM; IC50 (Jurkat): < 1 µM
COc1ccc(S(=O)(=O)n2cc(-c3ccc(N)nc3)cc2-c2ccccc2OC)cc1 [Example 103] | < 1 µM | 0 | 0 | 0 | 2 (strong activity comprising more than 50% of the cells) | 0 | 0 | 0 | 2 (strong activity comprising more than 50% of the cells) | 0 | 0 | 2 (strong activity comprising more than 50% of the cells) | 2 (strong activity comprising more than 50% of the cells) | 0 | 0 | 2 (strong activity comprising more than 50% of the cells) | 2 (strong activity comprising more than 50% of the cells) | 0 | 0 | 0 | IC50 (MRC5): > 1 µM; Hoechst 33342 nuclear staining score, MRC5 ([1]; conc 3): 1 (weak activity comprising less than 50% of the cells); Hoechst 33342 nuclear staining score, PBLs ([1]; conc 0.1): 0; Hoechst 33342 nuclear staining score, PBLs ([1]; conc 0.3): 0; Hoechst 33342 nuclear staining score, PBLs ([1]; conc 1): 0; Hoechst 33342 nuclear staining score, PBLs ([1]; conc 3): 0; IC50 (HeLa): > 1 µM; IC50 (Jurkat): < 1 µM
